Structures are written as SMILES. Some results are limits rather than exact numbers.

Test [1] deals with T1, hTRPM8 (Homo sapiens, UniProt Q7Z2W7).
T1 construct: expressed in transfected cells
Description: Assay on TRPM8 modulators: calcium imaging (Fluo-4, Flexstation 3) in HEK293 cell line stably expressing hTRPM8. It counts as cell-based. The conditions noted are these: HEK293 cells stably expressing hTRPM8; Fluo-4 calcium imaging; sigmoidal dose-response fit; read-out: EC50 value (TRPM8 agonist, calcium influx). On the procedure:
A HEK293 cell line stably expressing hTRPM8 was generated according to Klein et al., (Chem. Senses 36: 649-658, 2011) and receptor activation was monitored by calcium imaging in a Flexstation. For Ca-imaging assays of TRPM8 channel activation, cells were seeded on day 0 at a density of 12000 cells per well in Dulbecco's modified Eagle medium (DMEM) containing 9% foetal bovine serum in black, clear bottom 96-well plates that had been coated with 0.001% polyethyleneimine (molecular weight=60 000, Acros Organics). On day 2, agonists were evaluated via calcium imaging using Fluo-4. Briefly, growth medium was discarded, and the cells were incubated in the dark for 1 h at 37° C. in 50 μL loading buffer consisting of 2.7 μM Fluo-4 AM (Invitrogen) and […] probenecid (Sigma-Aldrich) in DMEM (without serum). […] The cells were then washed five times with 100 μL assay buffer and then calcium influx to serial dilutions of 2-(1-(2-(methylthio)propanoyl)piperidin-2-yl)-5-(p-tolyl)-1H-imidazolium carboxyformate was measured in a Flexstation 3 (Molecular Devices). […] Fluorescence was continuously monitored for 15 seconds prior to ligand addition and for 105 seconds after ligand addition, for a total of 120 seconds. Maximal receptor activation in relation to solvent control and relative to 31.6 μM menthol is determined. […]

Test [2] is described as follows: Sensory evaluation in model dentifrice by a panel of trained flavourists. The conditions noted are these: 10 ppm in unflavored model dentifrice, brushing with 1 g for 60 seconds, no rinsing. It counts as in vivo, human. The procedure:
The oxalate of 2-(methylthio)-1-(2-(5-(p-tolyl)imidazol-2-yl)piperidin-1-yl)propan-1-one (prepared according to Example 1d) was dissolved at a concentration of 1 wt-% in propylene glycol. This solution was then dispersed in an appropriate quantity to obtain the desired final concentration of 10 ppm (parts per million) of the test compound into a model, unflavored dentifrice, the formula of which is given below (ingredients obtained from the suppliers respectively indicated in parenthesis).
A panel of trained flavourists evaluated the dentifrice containing the oxalate, by brushing their teeth with 1 g of the dentifrice using a toothbrush for 60 seconds, followed by spitting, without rinsing the mouth afterwards for the duration of the evaluation. The flavourists evaluated and recorded the cooling performance as well as other sensorial and organoleptic attributes at different time-points over a period of 90 minutes. The following tasting notes were recorded: Good coolant. Clean, with a pleasant, mild tingling effect. Active in all areas of the mouth.

T1 sequence (Q7Z2W7 whole entry): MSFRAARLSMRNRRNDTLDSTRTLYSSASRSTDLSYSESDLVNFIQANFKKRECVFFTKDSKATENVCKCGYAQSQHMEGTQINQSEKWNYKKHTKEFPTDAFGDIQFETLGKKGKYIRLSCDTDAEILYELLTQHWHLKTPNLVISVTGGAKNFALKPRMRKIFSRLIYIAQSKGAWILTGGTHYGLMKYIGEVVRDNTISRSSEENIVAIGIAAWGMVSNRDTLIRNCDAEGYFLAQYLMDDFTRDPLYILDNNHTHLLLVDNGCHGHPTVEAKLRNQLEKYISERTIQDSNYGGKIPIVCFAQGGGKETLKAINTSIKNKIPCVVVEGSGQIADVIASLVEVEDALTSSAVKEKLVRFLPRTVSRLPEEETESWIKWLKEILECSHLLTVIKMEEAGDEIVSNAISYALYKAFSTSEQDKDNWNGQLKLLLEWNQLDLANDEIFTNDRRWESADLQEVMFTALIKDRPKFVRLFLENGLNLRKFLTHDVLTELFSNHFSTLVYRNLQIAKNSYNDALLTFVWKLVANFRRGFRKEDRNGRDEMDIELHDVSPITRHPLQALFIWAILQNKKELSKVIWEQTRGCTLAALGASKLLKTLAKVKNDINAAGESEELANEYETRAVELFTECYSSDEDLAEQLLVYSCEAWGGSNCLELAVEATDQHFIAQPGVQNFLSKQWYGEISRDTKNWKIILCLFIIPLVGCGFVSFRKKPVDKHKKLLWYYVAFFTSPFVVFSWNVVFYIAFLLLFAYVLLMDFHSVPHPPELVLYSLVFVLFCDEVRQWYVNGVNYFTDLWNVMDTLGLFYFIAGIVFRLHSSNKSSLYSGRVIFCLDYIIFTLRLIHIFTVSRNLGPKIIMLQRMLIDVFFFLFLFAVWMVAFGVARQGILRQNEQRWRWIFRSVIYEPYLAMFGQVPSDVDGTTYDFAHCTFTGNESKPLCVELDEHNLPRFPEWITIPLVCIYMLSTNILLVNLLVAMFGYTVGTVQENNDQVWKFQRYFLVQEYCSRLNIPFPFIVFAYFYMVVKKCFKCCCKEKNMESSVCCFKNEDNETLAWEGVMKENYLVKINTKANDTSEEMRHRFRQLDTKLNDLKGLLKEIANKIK

In the case of `CSC(C)C(=O)N1CCCCC1c1ncc(-c2ccc(C)cc2)[nH]1.O=C(O)C(=O)O` (stereo not shown) [Example 1d, 2-(1-(2-(methylthio)propanoyl)piperidin-2-yl)-5-(p-tolyl)-1H-imidazolium carboxyformate], the EC50 – broadly, the concentration giving half of the maximal effect – in test [1] is under 10 nM. The “onset of cooling effect (tasting notes)” value in test [2] is reported as “Fast acting (upfront cooling) with effect perceived already during brushing”. In test [2] (evaluated over 90 minutes), the “cooling performance (tasting notes)” value is recorded as “Good coolant” and the “longevity of cooling effect (tasting notes)” value is on record as “Strong cooling peak with long-lasting effect up to one hour”.

The record behind these values is patent US20240197604A1, “COMPOUNDS WITH COOLING SENSATION PROPERTIES” (Givaudan SA, priority 2021, published 2024).
